# Data taken from ChEMBL document CHEMBL1201862, “PubChem BioAssay data set” (2004).
#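 Test compounds were applied to cells in 96-well plates for 48 hours at 5 doses. At the GI50, growth is halved.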 Calls of active or inactive are those of the source. No stated cut-off is given here; in the data, active = GI50 up to about 1.1 µM and inactive = higher.
# Key:
# Assay in all cases: NCI tumour cell line growth inhibition, 48 h
# NCI-H23 = system: NCI-H23
# DMS-273 = system: DMS-273
# XF498 = system: XF498
# RXF 393 = system: RXF 393
# SNB-78 = system: SNB-78
# SF-268 = system: SF-268
# SK-MEL-28 = system: SK-MEL-28
# COLO 205 = system: COLO 205
# DMS-114 = system: DMS-114
# OVCAR-4 = system: OVCAR-4
# SN12C = system: SN12C
# SNB-19 = system: SNB-19
# NCI/ADR-RES = system: NCI/ADR-RES
# OVCAR-8 = system: OVCAR-8
# A498 = system: A498
# SK-OV-3 = system: SK-OV-3
# HOP-92 = system: HOP-92
# RPMI-8226 = system: RPMI-8226
# U-251 = system: U-251
# HOP-18 = system: HOP-18
# KM-20L2 = system: KM-20L2
# SNB-75 = system: SNB-75
# HCC 2998 = system: HCC 2998
# MCF7 = system: MCF7
# UACC-62 = system: UACC-62
# HCT-116 = system: HCT-116
# SK-MEL-5 = system: SK-MEL-5
# SF-539 = system: SF-539
# UACC-257 = system: UACC-257
# LOX IMVI = system: LOX IMVI
# HCT-15 = system: HCT-15
# HL-60 = system: HL-60
# SW-620 = system: SW-620
# OVCAR-5 = system: OVCAR-5
# DLD-1 = system: DLD-1
# UO-31 = system: UO-31
# NCI-H460 = system: NCI-H460
# OVCAR-3 = system: OVCAR-3
# SK-MEL-2 = system: SK-MEL-2
# A549 = system: A549
# NCI-H226 = system: NCI-H226
# CCRF-CEM = system: CCRF-CEM
# NCI-H522 = system: NCI-H522
# K562 = system: K562
# IGROV-1 = system: IGROV-1
# EKVX = system: EKVX
# HT-29 = system: HT-29
# HOP-62 = system: HOP-62
# SF-295 = system: SF-295
# Malme-3M = system: Malme-3M
# CAKI-1 = system: CAKI-1
# KM12 = system: KM12
# MOLT-4 = system: MOLT-4
# TK-10 = system: TK-10
# M19-MEL = system: M19-MEL
# ACHN = system: ACHN
# LXFL 529 = system: LXFL 529
# 786-0 = system: 786-0
# M14 = system: M14
# SR = system: SR
structure (smiles),measurement,setting,value
C=CCCCCn1c2ccccc2c2c(C)c3cnccc3c(C)c21,GI50,NCI-H23,4.63 µM (inactive)
same,GI50,DMS-273,5.14 µM (inactive)
same,GI50,XF498,1.95 µM (inactive)
same,GI50,RXF 393,6.25 µM (inactive)
same,GI50,SNB-78,12.1 µM (inactive)
same,GI50,SF-268,11.3 µM (inactive)
same,GI50,SK-MEL-28,9.82 µM (inactive)
same,GI50,COLO 205,3.96 µM (inactive)
same,GI50,DMS-114,3.94 µM (inactive)
same,GI50,OVCAR-4,6.5 µM (inactive)
same,GI50,SN12C,8.67 µM (inactive)
same,GI50,SNB-19,15.3 µM (inactive)
same,GI50,NCI/ADR-RES,5.07 µM (inactive)
same,GI50,OVCAR-8,3.93 µM (inactive)
same,GI50,A498,5.86 µM (inactive)
same,GI50,SK-OV-3,16.5 µM (inactive)
same,GI50,HOP-92,4.06 µM (inactive)
same,GI50,RPMI-8226,2.81 µM (inactive)
same,GI50,U-251,12.5 µM (inactive)
same,GI50,HOP-18,16.1 µM (inactive)
same,GI50,KM-20L2,6.38 µM (inactive)
same,GI50,SNB-75,3.88 µM (inactive)
same,GI50,HCC 2998,10.1 µM (inactive)
same,GI50,MCF7,7.73 µM (inactive)
same,GI50,UACC-62,11.2 µM (inactive)
same,GI50,HCT-116,4.63 µM (inactive)
same,GI50,SK-MEL-5,5.08 µM (inactive)
same,GI50,SF-539,12.5 µM (inactive)
same,GI50,UACC-257,4.5 µM (inactive)
same,GI50,LOX IMVI,7.55 µM (inactive)
same,GI50,HCT-15,6.27 µM
same,GI50,HL-60,2.07 µM (inactive)
same,GI50,SW-620,4.54 µM (inactive)
same,GI50,OVCAR-5,16.9 µM (inactive)
same,GI50,DLD-1,7.11 µM (inactive)
same,GI50,UO-31,5.75 µM (inactive)
same,GI50,NCI-H460,6.64 µM (inactive)
same,GI50,OVCAR-3,4.99 µM (inactive)
same,GI50,SK-MEL-2,13.4 µM (inactive)
same,GI50,A549,8.99 µM (inactive)
same,GI50,NCI-H226,10.9 µM (inactive)
same,GI50,CCRF-CEM,4.04 µM (inactive)
same,GI50,NCI-H522,3.97 µM (inactive)
same,GI50,K562,3.32 µM (inactive)
same,GI50,IGROV-1,11.7 µM (inactive)
same,GI50,EKVX,12.9 µM (inactive)
same,GI50,HT-29,7 µM (inactive)
same,GI50,HOP-62,16.2 µM (inactive)
same,GI50,SF-295,8.71 µM (inactive)
same,GI50,Malme-3M,9.02 µM (inactive)
same,GI50,CAKI-1,8.69 µM (inactive)
same,GI50,KM12,8.47 µM (inactive)
same,GI50,MOLT-4,2.83 µM (inactive)
O=C(O)CCC1CCc2cccc(OCC(=O)O)c2C1=O (configuration not stated),GI50,NCI-H23,> 100 µM (inactive)
same,GI50,DMS-273,> 100 µM (inactive)
same,GI50,TK-10,> 100 µM (inactive)
same,GI50,XF498,> 100 µM (inactive)
same,GI50,RXF 393,> 100 µM (inactive)
same,GI50,SNB-78,> 100 µM (inactive)
same,GI50,SK-MEL-28,> 100 µM (inactive)
same,GI50,COLO 205,> 100 µM (inactive)
same,GI50,DMS-114,> 100 µM (inactive)
same,GI50,OVCAR-4,> 100 µM (inactive)
same,GI50,SN12C,> 100 µM (inactive)
same,GI50,SNB-19,> 100 µM (inactive)
same,GI50,OVCAR-8,> 100 µM (inactive)
same,GI50,A498,> 100 µM (inactive)
same,GI50,M19-MEL,> 100 µM (inactive)
same,GI50,SK-OV-3,> 100 µM (inactive)
same,GI50,HOP-92,> 100 µM (inactive)
same,GI50,RPMI-8226,> 100 µM (inactive)
same,GI50,U-251,> 100 µM (inactive)
same,GI50,HOP-18,> 100 µM (inactive)
same,GI50,KM-20L2,> 100 µM (inactive)
same,GI50,SNB-75,> 100 µM (inactive)
same,GI50,HCC 2998,> 100 µM (inactive)
same,GI50,UACC-62,> 100 µM (inactive)
same,GI50,HCT-116,> 100 µM (inactive)
same,GI50,SK-MEL-5,> 100 µM (inactive)
same,GI50,ACHN,> 100 µM (inactive)
same,GI50,SF-539,> 100 µM (inactive)
same,GI50,UACC-257,> 100 µM (inactive)
same,GI50,LXFL 529,> 100 µM (inactive)
same,GI50,786-0,> 100 µM (inactive)
same,GI50,LOX IMVI,> 100 µM (inactive)
same,GI50,HCT-15,> 100 µM
same,GI50,HL-60,> 100 µM (inactive)
same,GI50,SW-620,> 100 µM (inactive)
same,GI50,DLD-1,> 100 µM (inactive)
same,GI50,M14,> 100 µM (inactive)
same,GI50,NCI-H460,> 100 µM (inactive)
same,GI50,OVCAR-3,> 100 µM (inactive)
same,GI50,A549,> 100 µM (inactive)
same,GI50,CCRF-CEM,> 100 µM (inactive)
same,GI50,K562,> 100 µM (inactive)
same,GI50,IGROV-1,> 100 µM (inactive)
same,GI50,EKVX,> 100 µM (inactive)
same,GI50,HT-29,> 100 µM (inactive)
same,GI50,HOP-62,> 100 µM (inactive)
same,GI50,SF-295,> 100 µM (inactive)
same,GI50,CAKI-1,> 100 µM (inactive)
same,GI50,MOLT-4,> 100 µM (inactive)
C/C(CN1C(=O)c2ccccc2C1=O)=N\NS(=O)(=O)c1ccc(F)cc1,GI50,NCI-H23,> 100 µM (inactive)
same,GI50,DMS-273,> 100 µM (inactive)
same,GI50,TK-10,> 100 µM (inactive)
same,GI50,XF498,> 100 µM (inactive)
same,GI50,SNB-78,> 100 µM (inactive)
same,GI50,SF-268,> 100 µM (inactive)
same,GI50,SK-MEL-28,> 100 µM (inactive)
same,GI50,COLO 205,> 100 µM (inactive)
same,GI50,DMS-114,> 100 µM (inactive)
same,GI50,OVCAR-4,> 100 µM (inactive)
same,GI50,SN12C,> 100 µM (inactive)
same,GI50,SNB-19,> 100 µM (inactive)
same,GI50,OVCAR-8,> 100 µM (inactive)
same,GI50,A498,> 100 µM (inactive)
same,GI50,SK-OV-3,> 100 µM (inactive)
same,GI50,RPMI-8226,> 100 µM (inactive)
same,GI50,U-251,> 100 µM (inactive)
same,GI50,HOP-18,> 100 µM (inactive)
same,GI50,KM-20L2,> 100 µM (inactive)
same,GI50,SNB-75,> 100 µM (inactive)
same,GI50,HCC 2998,> 100 µM (inactive)
same,GI50,UACC-62,> 100 µM (inactive)
same,GI50,SR,> 100 µM (inactive)
same,GI50,HCT-116,> 100 µM (inactive)
same,GI50,SK-MEL-5,> 100 µM (inactive)
same,GI50,ACHN,> 100 µM (inactive)
same,GI50,SF-539,> 100 µM (inactive)
same,GI50,UACC-257,> 100 µM (inactive)
same,GI50,LXFL 529,> 100 µM (inactive)
same,GI50,786-0,> 100 µM (inactive)
same,GI50,LOX IMVI,> 100 µM (inactive)
same,GI50,HCT-15,> 100 µM
same,GI50,HL-60,> 100 µM (inactive)
same,GI50,SW-620,> 100 µM (inactive)
same,GI50,OVCAR-5,> 100 µM (inactive)
same,GI50,DLD-1,> 100 µM (inactive)
same,GI50,M14,> 100 µM (inactive)
same,GI50,UO-31,> 100 µM (inactive)
same,GI50,NCI-H460,> 100 µM (inactive)
same,GI50,OVCAR-3,> 100 µM (inactive)
same,GI50,SK-MEL-2,> 100 µM (inactive)
same,GI50,A549,> 100 µM (inactive)
same,GI50,NCI-H226,> 100 µM (inactive)
same,GI50,CCRF-CEM,> 100 µM (inactive)
same,GI50,NCI-H522,> 100 µM (inactive)
same,GI50,K562,> 100 µM (inactive)
same,GI50,IGROV-1,> 100 µM (inactive)
same,GI50,EKVX,> 100 µM (inactive)
same,GI50,HT-29,> 100 µM (inactive)
same,GI50,HOP-62,> 100 µM (inactive)
same,GI50,SF-295,> 100 µM (inactive)
same,GI50,Malme-3M,> 100 µM (inactive)
same,GI50,CAKI-1,> 100 µM (inactive)
same,GI50,KM12,> 100 µM (inactive)
same,GI50,MOLT-4,> 100 µM (inactive)
